Source: PubChem BioAssay AID1159564 (GlaxoSmithKline (GSK), 2015)
Activity calls are given as the source filed them. The rule behind the calls is not given here.

Test system: L. donovani-infected THP-1 macrophages, intracellular amastigote imaging
Assay: antileishmanial activity in infected THP-1 macrophages – imaging, THP-1 host macrophages, host toxicity (AID 1159564)
[1] = measured here: THP-1 host cell toxicity
[2] = measured here: amastigotes per macrophage

Row | SMILES | IC50 | IC50 [1] [µM] | IC50 [2] [µM]
1 | O=C(NCC(c1cccnc1)N1CCc2ccccc2C1)C(=O)Nc1cccc(Cl)c1 (configuration not stated) | > 50 µM (inactive) | > 50 | > 50
2 | Cc1ccc(NC(=O)c2ccnc(N3CCCC3)c2)cc1-c1ccsc1C(N)=O | > 50 µM (inactive) | > 50 | > 50
3 | COc1ccc(NS(=O)(=O)c2cc(-c3cc(C)[nH]n3)ccc2C)cc1OC | 10 µM | > 50 | 7.9
4 | O=c1[nH]c(NCCCNCc2cc(Br)cc(Br)c2)nc2ccsc12 | 5 µM | 16 | 2.5
5 | CCNc1cc(-c2ccccn2)nc(Nc2ccc(OC)cc2)n1 | 0.5 µM | 25 | 0.4
6 | CN(Cc1nc2ccc(C(=O)NCC3CCCCC3)cc2[nH]1)C1CCCc2cccnc21 (configuration not stated) | 0.5 µM | 6.3 | 0.4
7 | CCN(CC)S(=O)(=O)c1ccc(OC)c(NC(=O)c2ccc([N+](=O)[O-])s2)c1 | > 50 µM (inactive) | > 50 | > 50
8 | CC(=O)NCCNc1cc(-c2ccnc(Nc3cccc(Cl)c3)n2)ccn1 | 0.25 µM | 0.1 | 0.1
9 | NC(=O)c1ncc(N[C@@H]2CCCNC2)nc1Nc1cccc(Cl)c1 | 0.79 µM | 2 | 0.5
10 | O=[N+]([O-])c1ccc(-c2nnn(-c3cccnc3)n2)o1 | > 50 µM (inactive) | 13 | 50
11 | CC(C)(C)c1csc(NC(=O)c2ccc([N+](=O)[O-])s2)n1 | 3.2 µM | > 50 | 2.5
12 | CC(C)(C)Nc1nc(Nc2ccc3c(c2)CS(=O)(=O)C3)nc2[nH]ccc12 | 6.3 µM | 20 | 5
13 | O=C(NCCc1nc(-c2ccc(F)c(F)c2)n[nH]1)C1CCCCC1 | > 50 µM (inactive) | 20 | 16
14 | O=[N+]([O-])c1ccc(C2=CC(c3ccccc3)=NCCN2)cc1 | 20 µM | 40 | 7.9
15 | COc1cnc2ccc(=O)n(CCN3CCC(NC/C=C/c4cc(F)ccc4F)CC3)c2c1 | 5 µM | 40 | 2
16 | c1ccc(Nc2nc3ccccc3[nH]2)nc1 | 7.9 µM | 25 | 7.9
17 | CCCCCNC(=O)c1c[nH]c2ccc(S(=O)(=O)N(C)c3ccc(OCC)cc3)cc2c1=O | > 50 µM (inactive) | > 50 | > 50

Row | SMILES | IC50 | IC50 [1] [µM] | IC50 [2] [µM]
18 | Cc1ccc(C)c(OC2CCN(C(=O)C(C)n3ccnc3)CC2)c1 (configuration not stated) | > 50 µM (inactive) | > 50 | 0.32
19 | Clc1ccc(C(CC2CCCCO2)Cn2cncn2)c(Cl)c1 (configuration not stated) | > 50 µM (inactive) | > 50 | > 50
20 | Cc1nc2nc(C)c(Cc3ccc(C(C)C)cc3)c(=O)n2[nH]1 | 32 µM | > 50 | 16
21 | Cc1nn2c(NCCCO)c3c(nc2c1-c1cccs1)CCC3 | > 50 µM (inactive) | > 50 | > 50
22 | Cc1ccc2onc(Nc3ccnc(Nc4cccc(S(C)(=O)=O)c4)n3)c2c1 | 2 µM | 20 | 1
23 | Cc1ccc(S(=O)(=O)Nc2ccc(CN3CCN(C(=O)c4cccc(C)c4)CC3)cc2)cc1 | 40 µM | 40 | 32
24 | COc1cc(C2SCC(=O)Nc3c2c(C)nn3-c2nc3ccccc3s2)cc(OC)c1O (configuration not stated) | 0.32 µM | > 50 | 0.25
25 | CCN(CC)S(=O)(=O)c1ccc(C)c(NC(=O)c2cc(Cl)c3c(c2)OCO3)c1 | > 50 µM (inactive) | > 50 | > 50
26 | O=C(NCC1CCCCC1)c1cc(=O)c2ccccc2o1 | 16 µM | < 50 | 6.3
27 | Cc1ccc(NC(=O)c2ccnc(N3CCCC3)c2)cc1-c1cc(C(N)=O)ccc1C | 40 µM | 32 | 25
28 | O=C(Cn1cnc2c(-c3ccccc3)csc2c1=O)N1CCCCC1 | > 50 µM (inactive) | > 50 | > 50
29 | Cc1nn(C2CCS(=O)(=O)C2)c(C)c1CN(C)C(=O)C=Cc1sc2ccccc2c1Cl (configuration not stated) | 40 µM | 20 | 13
30 | CN(C)S(=O)(=O)c1ccc(Cl)c(C(=O)Nc2nc(-c3ccccn3)cs2)c1 | 10 µM | 6.3 | 5
31 | COCCn1cnc2cc(NC(=O)C3CCCCC3)cc(C(=O)N3CCc4sccc4C3)c21 | > 50 µM (inactive) | > 50 | > 50
32 | Cc1[nH]nc2c1C(c1ccc(OCc3ccccc3F)cc1)SCC(=O)N2 (configuration not stated) | > 50 µM (inactive) | > 50 | > 50
33 | N#Cc1cccc(CN2CCC(c3nc(-c4ccc(C(F)(F)F)nc4)no3)CC2)c1 | > 50 µM (inactive) | > 50 | > 50
34 | Cc1[nH]c2ccccc2c(=O)c1Cc1c(C)[nH]c2ccccc2c1=O | > 50 µM (inactive) | > 50 | > 50
